# Measured values published in US6498125B2, “Pyridine ketones useful as herbicides” (Syngenta Participations AG, priority 1998, dated 2002).
# Tests used:
# [1] = system: Kochia; test: Example B4: post-emergence action, 250 g/ha; type: in vivo; details: 250 g of AS/ha, sprayed in the 2-3-leaf stage, 0.2% X77, 3 weeks, nine-level scale 1=complete damage, 9=no effect
# Method: (§1) Monocotyledonous and dicotyledonous test plants are sown in pots in standard soil. In the 2-3- leaf stage of the test plants, the test substances are sprayed on (500 l of spray liquor/ha) as an aqueous suspension, prepared from a wettable powder WP10 according to the desired dosage (250 g of a.i./ha). 0.2% of X77 is added as wetting agent to the spray liquor. The test plants are then grown under optimum conditions in a greenhouse.
# (§2) After a test period of 3 weeks, the test is evaluated with a nine4evel scale of ratings (1=complete damage, 9=no effect). Ratings of 1 to 4 (in particular 1 to 3) mean good to very good herbicidal action, 7-9 mean good tolerance.
# [2] = system: Chenopodium; test: Example B4: post-emergence action, 250 g/ha; type: in vivo; details: 250 g of AS/ha, sprayed in the 2-3-leaf stage, 0.2% X77, 3 weeks, nine-level scale 1=complete damage, 9=no effect
# Method: as §1, §2
# [3] = system: Stellaria; test: Example B4: post-emergence action, 250 g/ha; type: in vivo; details: 250 g of AS/ha, sprayed in the 2-3-leaf stage, 0.2% X77, 3 weeks, nine-level scale 1=complete damage, 9=no effect
# Method: as §1, §2
# [4] = system: Amaranthus; test: Example B4: post-emergence action, 250 g/ha; type: in vivo; details: 250 g of AS/ha, sprayed in the 2-3-leaf stage, 0.2% X77, 3 weeks, nine-level scale 1=complete damage, 9=no effect
# Method: as §1, §2
# [5] = system: Sida; test: Example B4: post-emergence action, 250 g/ha; type: in vivo; details: 250 g of AS/ha, sprayed in the 2-3-leaf stage, 0.2% X77, 3 weeks, nine-level scale 1=complete damage, 9=no effect
# Method: as §1, §2
# [6] = system: Abutilon; test: Example B4: post-emergence action, 250 g/ha; type: in vivo; details: 250 g of AS/ha, sprayed in the 2-3-leaf stage, 0.2% X77, 3 weeks, nine-level scale 1=complete damage, 9=no effect
# Method: as §1, §2
# [7] = system: Kochia; test: Example B3: pre-emergence action, 250 g/ha; type: in vivo; details: 250 g of AS/ha, sprayed immediately after sowing, 3 weeks, nine-level scale 1=complete damage, 9=no effect
# Method: (§3) Monocotyledonous and dicotyledonous test plants are sown in pots in standard soil. Immediately after sowing, the test substances are sprayed on (500 l of spray liquorlha) as an aqueous suspension, prepared from a wettable powder WP10 corresponding to the desired dosage (250 g of a.i./ha).
# as §2, with “The test plants are then grown under optimum conditions in a greenhouse. After” for “After”, “nine -evel” for “nine4evel”
# [8] = system: Chenopodium; test: Example B3: pre-emergence action, 250 g/ha; type: in vivo; details: 250 g of AS/ha, sprayed immediately after sowing, 3 weeks, nine-level scale 1=complete damage, 9=no effect
# Method: as §3
# as §2, with “The test plants are then grown under optimum conditions in a greenhouse. After” for “After”, “nine -evel” for “nine4evel”
# [9] = system: Stellaria; test: Example B3: pre-emergence action, 250 g/ha; type: in vivo; details: 250 g of AS/ha, sprayed immediately after sowing, 3 weeks, nine-level scale 1=complete damage, 9=no effect
# Method: as §3
# as §2, with “The test plants are then grown under optimum conditions in a greenhouse. After” for “After”, “nine -evel” for “nine4evel”
# [10] = system: Amaranthus; test: Example B3: pre-emergence action, 250 g/ha; type: in vivo; details: 250 g of AS/ha, sprayed immediately after sowing, 3 weeks, nine-level scale 1=complete damage, 9=no effect
# Method: as §3
# as §2, with “The test plants are then grown under optimum conditions in a greenhouse. After” for “After”, “nine -evel” for “nine4evel”
# [11] = system: Sida; test: Example B3: pre-emergence action, 250 g/ha; type: in vivo; details: 250 g of AS/ha, sprayed immediately after sowing, 3 weeks, nine-level scale 1=complete damage, 9=no effect
# Method: as §3
# as §2, with “The test plants are then grown under optimum conditions in a greenhouse. After” for “After”, “nine -evel” for “nine4evel”
# [12] = system: Abutilon; test: Example B3: pre-emergence action, 250 g/ha; type: in vivo; details: 250 g of AS/ha, sprayed immediately after sowing, 3 weeks, nine-level scale 1=complete damage, 9=no effect
# Method: as §3
# as §2, with “The test plants are then grown under optimum conditions in a greenhouse. After” for “After”, “nine -evel” for “nine4evel”
# [13] = system: Monocotyledonous and dicotyledonous test plants; test: Example B2: post-emergence herbicidal action, 2 kg of AS/ha; type: in vivo; parameters: key: 1 = complete damage, 9 = no effect; details: 4- to 6-leaf stage, about 18 days, scale 1-9; for post-emergence action rating, Avena: test plant Avena; for post-emergence action rating, Setaria: test plant Setaria; for post-emergence action rating, Sinapis: test plant Sinapis; for post-emergence action rating, Solanum: test plant Solanum; for post-emergence action rating, Stellaria: test plant Stellaria
# Method: Monocotyledonous and dicotyledonous test plants are grown in plastic pots with standard soil in a greenhouse and, in the 4- to 6-leaf stage, are sprayed with an aqueous suspension of the test substances of the formula 1, prepared from a 25% wettable powder (Example F3, b) according to WO 97134485) or with an emulsion of the test substances of the formula I, prepared from a 25% emulsion concentrate (Example F1, c) according to WO 97/34485), corresponding to a dosage of 2 kg of AS/ha (500 l of water/ha). The test plants are then grown further under optimum conditions in a greenhouse. After a test period of about 18 days, the test is evaluated with a nine-level scale of rating (1=complete damage, 9=no effect). Ratings of 1 to 4 (in particular 1 to 3) mean good to very good herbicidal action. In this test, the compounds of the formula I show strong herbicidal action.
# [14] = system: Monocotyledonous and dicotyledonous test plants; test: Example B1: pre-emergence herbicidal action, 2 kg of AS/ha; type: in vivo; details: 3 weeks, scale 1-9; for pre-emergence action rating, Avena: test plant Avena; for pre-emergence action rating, Cyperus: test plant Cyperus; for pre-emergence action rating, Setaria: test plant Setaria; for pre-emergence action rating, Sinapis: test plant Sinapis; for pre-emergence action rating, Solanum: test plant Solanum; for pre-emergence action rating, Stellaria: test plant Stellaria
# Method: Monocotyledonous and dicotyledonous test plants are sown in standard soil in plastic pots. Immediately after sowing, the test substances are sprayed on (500 l of water/ha) as an aqueous suspension (prepared from a 25% wettable powder (Example F3, b) according to WO 97/34485) or emulsion (prepared from a 25% emulsion concentrate (Example F1, c)), corresponding to a dosage of 2 kg of AS/ha. The test plants are then grown under optimum conditions in a greenhouse. After a test period of 3 weeks, the test is evaluated with a nine-level scale of ratings (1=complete damage, 9=no effect). Ratings of 1 to 4 (in particular 1 to 3) mean good to very good herbicidal action.
compound,measurement,setting,value
CC[S+]([O-])c1ccc(C(=O)C2=C(O)C3CCC(C3)C2=O)c(C(F)(F)F)n1 (stereo not drawn) [Compound 1.343],Post-emergence action: Kochia (rating),[1],3
same,Post-emergence action: Chenopodium (rating),[2],2
same,Post-emergence action: Stellaria (rating),[3],3
same,Post-emergence action: Amaranthus (rating),[4],2
same,Post-emergence action: Sida (rating),[5],9
same,Post-emergence action: Abutilon (rating),[6],3
same,Pre-emergence action: Kochia (rating),[7],9
same,Pre-emergence action: Chenopodium (rating),[8],1
same,Pre-emergence action: Stellaria (rating),[9],5
same,Pre-emergence action: Amaranthus (rating),[10],4
same,Pre-emergence action: Sida (rating),[11],3
same,Pre-emergence action: Abutilon (rating),[12],1
"Cc1nc(C(F)(F)F)ccc1C(=O)c1c([S+](C)[O-])noc1C1CC1 (stereo not drawn) [Compound 8.009, (5-cyclopropyl-3-methylsulfinylisoxazol-4-yl)-(2-methyl-6-trifluoromethylpyridin-3-yl)methanone]",melting point,,96 to 97 °C
Cc1nc(C(F)(F)F)ccc1C(=O)C1=C(O)C(C)(C)C=C(S(C)(=O)=O)C1=O [Compound 5.084],melting point,,215 to 216 °C
O=C(C1=C(O)C2CCC(C2)C1=O)c1ccnc(C(F)(F)F)c1 (stereo not drawn) [Compound 3.001],melting point,,95 to 97 °C
CSc1nc(C(=O)C2=C(O)C3CCC(C3)C2=O)ccc1C(F)(F)F (stereo not drawn) [Compound 2.03],melting point,,107 to 110 °C
Cc1nc(C(F)(F)F)ccc1C(=O)C1=C(O)CC(NC(=O)NC(C)(C)C)CC1=O (stereo not drawn) [Compound 6.111],melting point,,163 to 164 °C
Cc1nc(C(F)(F)F)ccc1C(=O)C1=C(O)C(C)(C)C=C([S+](C)[O-])C1=O (stereo not drawn) [Compound 5.083],melting point,,161 to 162 °C
Cc1nc(C(F)(F)F)ccc1C(=O)C1=C(O)CC(NC(=O)C(C)C)CC1=O (stereo not drawn) [Compound 6.041],melting point,,186 to 187 °C
COc1nc(C(=O)C2=C(O)C3CCC(C3)C2=O)ccc1C(F)(F)F (stereo not drawn) [Compound 2.038],melting point,,111 to 113 °C
"Cc1nc(C(F)(F)F)ccc1C(=O)C1=C(Sc2ccc(Cl)cc2)C2CCC(C2)C1=O (stereo not drawn) [Compound 1.412, 4-(4-chlorophenylsulfanyl)-3-(2-methyl-6-trifluoromethylpyridine-3-carbonyl)bicyclo[3.2.1]oct-3-en-2-one]",melting point,,130 to 131 °C
CCC(=O)NC1CC(=O)C(C(=O)c2ccc(C(F)(F)F)nc2C)=C(O)C1 (stereo not drawn) [Compound 6.006],"post-emergence action rating, Avena",[13],2
same,"post-emergence action rating, Setaria",[13],5
same,"post-emergence action rating, Sinapis",[13],2
same,"post-emergence action rating, Solanum",[13],2
same,"post-emergence action rating, Stellaria",[13],2
same,melting point,,176 to 177 °C
"Cc1nc(C(F)(F)F)ccc1C(=O)C1=C(S(=O)(=O)c2ccc(Cl)cc2)C2CCC(C2)C1=O (stereo not drawn) [Compound 1.414, 4-(4-chlorobenzenesulfonyl)-3-(2-methyl-6-trifluoromethylpyridine-3-carbonyl)bicyclo[3.2.1]oct-3-en-2-one]",melting point,,166 to 167 °C
"Cc1nc(C(F)(F)F)ccc1C(=O)C1=C(Cl)C2CCC(C2)C1=O (stereo not drawn) [Compound 1.398, 4-chloro-3-(2-methyl-6-trifluoromethyl-pyridine-3-carbonyl)bicyclo[3.2.1]oct-3-en-2-one]","post-emergence action rating, Avena",[13],2
same,"post-emergence action rating, Setaria",[13],2
same,"post-emergence action rating, Sinapis",[13],1
same,"post-emergence action rating, Solanum",[13],2
same,"post-emergence action rating, Stellaria",[13],2
same,melting point,,137 to 138 °C
same,"pre-emergence action rating, Avena",[14],2
same,"pre-emergence action rating, Cyperus",[14],1
same,"pre-emergence action rating, Setaria",[14],1
same,"pre-emergence action rating, Sinapis",[14],1
same,"pre-emergence action rating, Solanum",[14],1
same,"pre-emergence action rating, Stellaria",[14],1
CSc1nccc(C(=O)C2=C(O)C3CCC(C3)C2=O)c1C#N (stereo not drawn) [Compound 3.055],melting point,,108 to 110 °C
Cc1nc(C(F)(F)F)ccc1C(=O)C1=C(O)CC(NC(=O)Nc2ccccc2)CC1=O (stereo not drawn) [Compound 6.076],melting point,,195 to 196 °C
"Cc1nc(C(F)(F)F)ccc1-c1onc([S+](C)[O-])c1C(=O)C1CC1 (stereo not drawn) [Compound 9.009, cyclopropyl-[3-methanesulfinyl-5-(2-methyl-6-trifluoromethylpyridin-3yl)isoxazol4-yl]methanone]",melting point,,112 to 113 °C
C#CCOc1ccc(C(=O)C2=C(O)C3CCC(C3)C2=O)c(C(F)(F)F)n1 (stereo not drawn) [Compound 1.351],Post-emergence action: Kochia (rating),[1],3
same,Post-emergence action: Chenopodium (rating),[2],3
same,Post-emergence action: Stellaria (rating),[3],3
same,Post-emergence action: Amaranthus (rating),[4],2
same,Post-emergence action: Sida (rating),[5],3
same,Post-emergence action: Abutilon (rating),[6],5
"Cc1nc(C(F)(F)F)ccc1C(=O)C1=C(N)C2CCC(C2)C1=O (stereo not drawn) [Compound 1.399, 4-amino-3-(2-methyl-6-trifluoromethylpyridine-3-carbonyl)bicyclo[3.2.1]oct-3en-2-one]",melting point,,262 to 263 °C
CC(=O)OC1=C(C(=O)c2ccc(C(F)(F)F)nc2C)C(=O)C2CCC1C2 (stereo not drawn) [Compound 1.401],"post-emergence action rating, Avena",[13],2
same,"post-emergence action rating, Setaria",[13],2
same,"post-emergence action rating, Sinapis",[13],2
same,"post-emergence action rating, Solanum",[13],2
same,"post-emergence action rating, Stellaria",[13],2
same,"pre-emergence action rating, Avena",[14],2
same,"pre-emergence action rating, Cyperus",[14],1
same,"pre-emergence action rating, Setaria",[14],1
same,"pre-emergence action rating, Sinapis",[14],2
same,"pre-emergence action rating, Solanum",[14],1
same,"pre-emergence action rating, Stellaria",[14],2
O=C(C1=C(O)C2CCC(C2)C1=O)c1ncc(C(F)(F)F)cc1Cl (stereo not drawn) [Compound 2.044],melting point,,105 to 106 °C
Cc1ccc(C(=O)C2=C(O)C3CCC(C3)C2=O)c(C(F)(F)F)n1 (stereo not drawn) [Compound 1.361],Post-emergence action: Kochia (rating),[1],2
same,Post-emergence action: Chenopodium (rating),[2],2
same,Post-emergence action: Stellaria (rating),[3],3
same,Post-emergence action: Amaranthus (rating),[4],2
same,Post-emergence action: Sida (rating),[5],2
same,Post-emergence action: Abutilon (rating),[6],2
Cc1nc(C(F)(F)C(F)(F)F)ccc1C(=O)C1=C(O)C2CCC(C2)C1=O (stereo not drawn) [Compound 1.109],"post-emergence action rating, Avena",[13],2
same,"post-emergence action rating, Setaria",[13],2
same,"post-emergence action rating, Sinapis",[13],1
same,"post-emergence action rating, Solanum",[13],2
same,"post-emergence action rating, Stellaria",[13],2
same,"pre-emergence action rating, Avena",[14],2
same,"pre-emergence action rating, Cyperus",[14],2
same,"pre-emergence action rating, Setaria",[14],2
same,"pre-emergence action rating, Sinapis",[14],2
same,"pre-emergence action rating, Solanum",[14],1
same,"pre-emergence action rating, Stellaria",[14],3
Cc1nc(C(F)(F)F)ccc1C(=O)C1=C(Sc2ccccc2)C2CCC(C2)C1=O (stereo not drawn) [Compound 1.381],"post-emergence action rating, Avena",[13],2
same,"post-emergence action rating, Setaria",[13],2
same,"post-emergence action rating, Sinapis",[13],2
same,"post-emergence action rating, Solanum",[13],2
same,"post-emergence action rating, Stellaria",[13],2
same,"pre-emergence action rating, Avena",[14],4
same,"pre-emergence action rating, Cyperus",[14],1
same,"pre-emergence action rating, Setaria",[14],2
same,"pre-emergence action rating, Sinapis",[14],2
same,"pre-emergence action rating, Solanum",[14],1
same,"pre-emergence action rating, Stellaria",[14],1
